{"source": "ChEMBL document CHEMBL5532700", "about": "“Inhibition of bacterial RNA polymerase function and protein-protein interactions: a promising approach for next-generation antibacterial therapeutics” (RSC Med Chem, 2024)", "key": {"[1]": {"tested_on": "Staphylococcus aureus", "assay": "Antibacterial activity against vancomycin-resistant Staphylococcus aureus", "type": "functional"}, "[2]": {"tested_on": "Staphylococcus aureus", "assay": "Antibacterial activity against Staphylococcus aureus", "type": "functional"}, "[3]": {"tested_on": "Staphylococcus aureus", "assay": "Antibacterial activity against methicillin-resistant Staphylococcus aureus", "type": "functional"}, "[4]": {"assay": "Inhibition of ribo(C)10 stimulated Escherichia coli AR120 Rho ATPase activity preincubated for 2 mins in presence of ribo(C)10 followed by ATP addition and measured for 90 sec by [gamma-32P]ATP based liquid scintillation counting method"}, "[5]": {"assay": "Inhibition of ribo(C)10 stimulated Escherichia coli AR120 Rho ATPase activity preincubated for 2 mins in absence of ribo(C)10 followed by ATP addition and measured for 90 sec by [gamma-32P]ATP based liquid scintillation counting method"}, "[6]": {"assay": "Inhibition of Escherichia coli RNA polymerase/sigma factor 70 (unknown origin) protein-protein interaction incubated for 30 mins by ELISA"}, "[7]": {"assay": "Inhibition of NusB-NusE (unknown origin) protein protein interaction", "set-up": "species or system Bacteria"}, "[8]": {"tested_on": "Bacteria", "assay": "Inhibition of bacterial RNA polymerase holoenzyme formation assessed as inhibition of interaction between beta subunit CH domain and sigma factor at 500 uM relative to control"}, "[9]": {"tested_on": "Bacillus subtilis", "assay": "Antibacterial activity against Bacillus subtilis EU168 measured after 18 hrs", "type": "functional"}, "[10]": {"tested_on": "Staphylococcus aureus", "assay": "Antibacterial activity against community-acquired methicillin-resistant Staphylococcus aureus USA300 measured after 18 hrs", "type": "functional"}, "[11]": {"tested_on": "Streptococcus pneumoniae", "assay": "Antibacterial activity against Streptococcus pneumoniae CIP103566 measured after 24 hrs by broth microdilution method", "type": "functional"}, "[12]": {"tested_on": "Bacillus anthracis", "assay": "Antibacterial activity against Bacillus anthracis 9131 measured after 24 hrs by broth microdilution method", "type": "functional"}, "[13]": {"tested_on": "Bacteroides sp.", "assay": "Antibacterial activity against Bacteroides sp. measured after 24 hrs by broth microdilution method", "type": "functional"}, "[14]": {"tested_on": "Streptococcus pneumoniae", "assay": "Antibacterial activity against Streptococcus pneumoniae assessed as reduction in bacterial growth incubated for 16 to 20 hrs by broth microdilution method", "type": "functional", "details": "time 16-20 hrs"}, "[15]": {"assay": "Inhibition of Bacillus subtilis N-terminal SmBiT NanoLuc/C-terminal LgBiT NanoLuc fused full-length SigA tagged RNA polymerase beta subunit CH-domain (220 to 315 residues)/sigma factor (unknown origin) protein-protein interaction by split luciferase assay"}, "[16]": {"tested_on": "Escherichia coli", "assay": "Antibacterial activity against Escherichia coli assessed as inhibition of bacterial growth at 200 uM incubated for 10 sec under shaking condition relative to control", "type": "functional", "details": "10 s"}, "[17]": {"tested_on": "Bacillus subtilis", "assay": "Antibacterial activity against Bacillus subtilis assessed as inhibition of bacterial growth at 200 uM incubated for 10 sec under shaking condition relative to control", "type": "functional", "details": "10 s"}, "[18]": {"assay": "Inhibition of poly(C) dependent Escherichia coli DW319 Rho ATPase activity"}, "[19]": {"tested_on": "Neisseria gonorrhoeae", "assay": "Antibacterial activity against Neisseria gonorrhoeae", "type": "functional"}, "[20]": {"tested_on": "Moraxella catarrhalis", "assay": "Antibacterial activity against Moraxella catarrhalis", "type": "functional"}, "[21]": {"assay": "Binding affinity to NusB (unknown origin) assessed as dissociation constant", "set-up": "species or system Bacteria"}}}
{"smiles": "O=[N+]([O-])c1ccc(O)c(CNc2ccccc2C#Cc2ccccc2)c1", "values": [{"measurement": "MIC", "setting": "[1]", "value": 0.25, "unit": "µg/mL"}, {"measurement": "MIC", "setting": "[2]", "value": 0.25, "unit": "µg/mL"}, {"measurement": "MIC", "setting": "[3]", "value": 0.25, "unit": "µg/mL"}]}
{"smiles": "C=C1CCO[C@]2([C@@H](O)[C@@](C)(O)CO)NC(=O)[C@@]1(O)NC2=O", "note": "[BICOZAMYCIN]", "values": [{"measurement": "Ki", "setting": "[4]", "value": 2.8, "unit": "µM"}, {"measurement": "Ki", "setting": "[5]", "value": 26, "unit": "µM"}]}
{"smiles": "CN1C(=O)/C(=C\\c2ccc(-c3cccc(C(=O)O)c3)o2)SC1=S", "values": [{"measurement": "IC50", "setting": "[6]", "value": 3, "unit": "µM"}]}
{"smiles": "COc1ccc(-c2cc(-c3ccc(OC)c(OC)c3)nc(NS(=O)(=O)c3ccc(NC(C)=O)cc3)n2)c(OC)c1", "values": [{"measurement": "IC50", "setting": "[7]", "value": 6.1, "unit": "µM"}]}
{"smiles": "C[C@]12CC[C@@H](O)CC1CCC1C2CC[C@](C)(C(=O)O)C1/C=C1/Nc2ccccc2C1=O", "note": "(some centres undefined)", "values": [{"measurement": "inhibition", "setting": "[8]", "value": 80, "unit": "%"}, {"measurement": "MIC", "setting": "[9]", "value": "≤ 50", "unit": "µM"}, {"measurement": "MIC", "setting": "[10]", "value": "~100", "unit": "µM"}]}
{"smiles": "C=CCN1C(=O)/C(=C\\c2ccc(-c3cccc(C(=O)O)c3)o2)SC1=S", "values": [{"measurement": "MIC", "setting": "[11]", "value": 2, "unit": "µg/mL"}, {"measurement": "IC50", "setting": "[6]", "value": 2, "unit": "µM"}, {"measurement": "MIC", "setting": "[12]", "value": 0.1, "unit": "µg/mL"}, {"measurement": "MIC", "setting": "[13]", "value": 1, "unit": "µg/mL"}]}
{"smiles": "COc1cccc(/C=C/c2cc(O)ccc2[N+](=O)[O-])c1", "values": [{"measurement": "MIC", "setting": "[1]", "value": 0.25, "unit": "µg/mL"}, {"measurement": "MIC", "setting": "[2]", "value": 2, "unit": "µg/mL"}, {"measurement": "MIC", "setting": "[3]", "value": 0.25, "unit": "µg/mL"}]}
{"smiles": "CC(C)(C)c1ccccc1NCc1cc([N+](=O)[O-])ccc1O", "values": [{"measurement": "MIC", "setting": "[1]", "value": 0.25, "unit": "µg/mL"}, {"measurement": "MIC", "setting": "[2]", "value": 1, "unit": "µg/mL"}, {"measurement": "MIC", "setting": "[3]", "value": 0.25, "unit": "µg/mL"}]}
{"smiles": "O=C(O)c1ccccc1C(=O)c1ccc(Sc2ccc(Cl)c(Cl)c2)c([N+](=O)[O-])c1", "values": [{"measurement": "MIC", "setting": "[14]", "value": 8, "unit": "µg/mL"}]}
{"smiles": "Nc1ccccc1Sc1ccc(C(=O)c2ccccc2C(=O)O)cc1[N+](=O)[O-]", "values": [{"measurement": "MIC", "setting": "[14]", "value": 256, "unit": "µg/mL"}, {"measurement": "inhibition", "setting": "[8]", "value": 80, "unit": "%"}, {"measurement": "IC50", "setting": "[15]", "value": 6.4, "unit": "µM"}]}
{"smiles": "N=C(N)N/N=C/c1ccc(OC/C=C\\COc2ccc(/C=N/NC(=N)N)cc2)cc1", "values": [{"measurement": "inhibition at 200 µM", "setting": "[16]", "value": 100, "unit": "%"}, {"measurement": "inhibition at 200 µM", "setting": "[17]", "value": 100, "unit": "%"}]}
{"smiles": "CCNC(=O)Nc1ccc(OCCCCOc2ccc(NC(=O)NCC)cc2)cc1", "values": [{"measurement": "IC50", "setting": "[7]", "value": 19.8, "unit": "µM"}]}
{"smiles": "O=C1N(Cc2ccccc2)CCC1(CCN1CCC(Nc2nc3ccccc3n2Cc2ccc(F)cc2)CC1)Cc1ccccc1", "note": "(centres undefined)", "values": [{"measurement": "IC50", "setting": "[18]", "value": 25, "unit": "µM"}, {"measurement": "MIC", "setting": "[19]", "value": 2.5, "unit": "µM"}, {"measurement": "MIC", "setting": "[20]", "value": 2.5, "unit": "µM"}]}
{"smiles": "C#Cc1cccc(NCc2cc([N+](=O)[O-])cc(Br)c2O)c1", "values": [{"measurement": "MIC", "setting": "[1]", "value": 0.25, "unit": "µg/mL"}, {"measurement": "MIC", "setting": "[3]", "value": 0.25, "unit": "µg/mL"}]}
{"smiles": "O=[N+]([O-])c1ccc(O)c(/C=N/c2cccc(Cl)c2)c1", "values": [{"measurement": "MIC", "setting": "[1]", "value": 0.25, "unit": "µg/mL"}, {"measurement": "MIC", "setting": "[2]", "value": 2, "unit": "µg/mL"}, {"measurement": "MIC", "setting": "[3]", "value": 0.25, "unit": "µg/mL"}]}
{"smiles": "C=CCN1C(=O)/C(=C/c2cc(C)n(-c3cccc(C(=O)O)c3)c2C)SC1=S", "values": [{"measurement": "IC50", "setting": "[6]", "value": 1.8, "unit": "µM"}]}
{"smiles": "C#Cc1cccc(/N=C/c2cc([N+](=O)[O-])ccc2O)c1", "values": [{"measurement": "IC50", "setting": "[7]", "value": "~35", "unit": "µM"}, {"measurement": "MIC", "setting": "[2]", "value": 8, "unit": "µg/mL"}, {"measurement": "Kd", "setting": "[21]", "value": "~1.5", "unit": "µM"}]}
